pEC50, pIC50: −log10 of the molar value. Bounds are passed on as bounds.

The subject of test [1] is HFL-1 cells. Briefly: IL8 assay (S1P induced IL-8 production). The following applies: Homo sapiens, HFL1; S1P (1 μM) induced IL-8, HFL-1 cells, without HSA. In kind it is cell-based. In outline: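 Serum-starved human fetal lung fibroblasts were preincubated with compound for 1 h at 37° C (10-point, 1/3 dilution, top 30 μM, 0.3% DMSO). S1P at 1 μM final was then added for 16–24 h, and IL-8 in the supernatant was measured by ELISA.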

Test [2] addresses T1, human GPCR sphingosine 1-phosphate receptor 2 (S1PR2) (Homo sapiens, UniProt O95136).
T1 construct: host or cells: CHO
Put plainly: S1P2 antagonist assay (Ca2+ flux, S1P at EC80). The class given is cell-based. The following applies: CHO-S1PR2 cells, highest concentration 20 μM. In outline:
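CHO cells stably overexpressing human S1PR2, serum-starved 1 h and loaded with Fluo8 dye, were read for 3 min after compound addition, then stimulated with S1P at EC80 after 15 min at 37 °C. Top concentration 20 μM in a 10-point 1/3 series; Ca2+ fluorescence ratio normalized to vehicle and S1P EC80, giving EC50.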

The target in test [3] is T2, human GPCR sphingosine 1-phosphate receptor 1 (S1PR1) (Homo sapiens, UniProt P21453).
T2 construct: host or cells: CHO
T2 sequence (P21453 whole entry): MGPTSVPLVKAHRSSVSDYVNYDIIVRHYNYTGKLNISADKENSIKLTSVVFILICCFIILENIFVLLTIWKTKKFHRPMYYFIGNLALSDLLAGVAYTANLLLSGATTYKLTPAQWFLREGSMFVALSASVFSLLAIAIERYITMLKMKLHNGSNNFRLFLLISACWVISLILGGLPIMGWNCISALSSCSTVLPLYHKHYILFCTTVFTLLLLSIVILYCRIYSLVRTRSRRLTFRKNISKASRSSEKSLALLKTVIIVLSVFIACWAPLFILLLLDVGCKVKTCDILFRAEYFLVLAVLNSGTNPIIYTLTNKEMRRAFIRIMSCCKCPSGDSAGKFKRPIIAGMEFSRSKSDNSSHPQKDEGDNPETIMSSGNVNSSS
Put plainly: S1PR1 selectivity assay (Ca2+ flux, antagonist). In kind it is cell-based. The following applies: S1P1 antagonist EC50, CHO cells overexpressing human S1PR1 and Gq protein. In short, it runs like this:
(§1)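 CHO cells stably overexpressing human S1PR1 or S1PR5 with Gq were preincubated with compound 15 min at 37 °C, then stimulated with S1P at EC80 (S1PR1) or an S1PR5-specific agonist (S1PR5). Ca2+ fluorescence was read for 3 min; 10-point 1/3 dilutions from 20 μM final, normalized to vehicle and EC80 trigger, gave EC50.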
For orientation: Calcium assays in cells follow changes in intracellular calcium, usually with a dye or a luminescent sensor.

A further test concerns the target T3, S1PR2 (Homo sapiens, UniProt O95136).
T3 construct: expressed in transfected cells
Briefly: GTP-γS binding assay ([35S]GTPγS, S1P at EC80, S1PR2 membranes). The class given is biochemical. The following applies: membranes from stable cell line over expressing S1PR2, read-out: S1PR2 EC. In short, it runs like this:
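Compounds tested against S1P at its EC80 on membranes (2.5 μg/well) from a stable S1PR2-overexpressing line, pre-incubated with 1 μM GDP 15 min at 4 °C. Buffer: 20 mM Tris pH 7.5, 10 mM MgCl2, 100 mM NaCl, 0.1% fatty-acid-free BSA, 50 ug/ml saponin. Incubated 4 h at room temperature; [35S]GTPγS binding read by WGA SPA beads.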
(GTPγS resists hydrolysis and so accumulates on activated G proteins.)

The subject of test [4] is HFL-1 cells. Briefly: IL8 assay in the presence of Human Serum Albumin. In kind it is cell-based. The following applies: HFL1, S1P (5 μM) induced IL-8, HFL-1 cells, with 2% HSA, read-out: HSA IL8 EC50. In outline: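 Cells serum-starved with 1.95% HSA, pre-treated 1 h with compound (10-point 1/3 dilution from 30 μM, 0.3% DMSO), then stimulated with 5 μM S1P for 16 to 24 h at 37° C. Supernatant IL-8 measured by ELISA.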

In test [5] the target is T4, human GPCR sphingosine 1-phosphate receptor 5 (S1PR5) (Homo sapiens, UniProt Q9H228).
T4 construct: host or cells: CHO
T4 sequence (Q9H228 whole entry): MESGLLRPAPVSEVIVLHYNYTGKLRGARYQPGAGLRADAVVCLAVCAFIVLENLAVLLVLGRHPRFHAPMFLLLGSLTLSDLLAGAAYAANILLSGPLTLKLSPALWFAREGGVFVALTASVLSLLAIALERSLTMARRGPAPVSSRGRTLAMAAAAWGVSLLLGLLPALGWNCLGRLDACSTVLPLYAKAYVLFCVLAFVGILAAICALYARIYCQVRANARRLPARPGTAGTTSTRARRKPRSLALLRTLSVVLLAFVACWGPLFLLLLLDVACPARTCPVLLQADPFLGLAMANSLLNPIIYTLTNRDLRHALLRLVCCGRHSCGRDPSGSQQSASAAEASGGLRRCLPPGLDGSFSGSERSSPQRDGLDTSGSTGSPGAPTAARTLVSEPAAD
Put plainly: S1PR5 selectivity assay (Ca2+ flux, antagonist, S1PR5 specific agonist trigger). In kind it is cell-based. The note with it: S1P5 antagonist EC50, CHO cells overexpressing human S1PR5 and Gq protein. In outline:
as §1

T3 sequence (O95136 whole entry): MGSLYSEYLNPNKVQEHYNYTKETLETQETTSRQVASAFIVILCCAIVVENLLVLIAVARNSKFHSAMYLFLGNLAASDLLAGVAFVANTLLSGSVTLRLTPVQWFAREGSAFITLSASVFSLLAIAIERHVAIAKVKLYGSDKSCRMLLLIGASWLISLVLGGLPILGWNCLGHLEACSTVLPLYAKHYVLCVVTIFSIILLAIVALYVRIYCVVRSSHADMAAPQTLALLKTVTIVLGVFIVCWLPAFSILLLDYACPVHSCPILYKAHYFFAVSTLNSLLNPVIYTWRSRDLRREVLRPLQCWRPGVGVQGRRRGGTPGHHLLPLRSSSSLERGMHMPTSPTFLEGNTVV
T1 sequence (O95136 whole entry): as above

On to `CN(C)Cc1cc(CNC(=O)Nc2cc(Cl)nc(OCC(F)F)c2)nnc1-c1cn(C)nc1C(F)(F)F` [Compound 65, 1-[2-chloro-6-(2,2-difluoroethoxy)-4-pyridyl]-3-[[5-(dimethylamino-methyl)-6-[1-methyl-3-(trifluoromethyl)pyrazol-4-yl]pyridazin-3-yl]methyl]urea], for which the pEC50 with HFL-1 cells [1] is 5.58; in test [2] it was 5.79; in test [3], 5.18; at S1PR2, 5.83; in test [5], at most 4.70. Besides, the pIC50 in the test on HFL-1 cells [4] was 5.00.
For the molecule `CCOc1cc(NC(=O)NCc2cc(C)c(-c3cnn(C)c3C)nn2)cc(C(F)(F)F)n1` [Compound 69], the pEC50 in the test on HFL-1 cells [1] was 6.97; in test [2] it was 6.02; in test [3], at most 4.70; at S1PR2 it was 6.12; in test [5] it was at most 4.70. Also, in the test with HFL-1 cells [4], the pIC50 is 5.00.
For `CCOc1nc(C)cc(NC(=O)NCc2cc(C)c(-c3cn(C)nc3C(F)(F)F)nn2)c1Cl` [Compound 71, 1-(3-chloro-2-ethoxy-6-methyl-4-pyridyl)-3-[[5-methyl-6-[1-methyl-3-(trifluoromethyl)pyrazol-4-yl]pyridazin-3-yl]methyl]urea], the pEC50 is 8.70 in the test on HFL-1 cells [1]; 8.05 in test [2]; 5.18 in test [3]; 7.60 at S1PR2; 5.18 in test [5]. In the test with HFL-1 cells [4], the pIC50 is 7.25.
For the molecule `CCOc1nc(C)cc(NC(=O)NCc2cc(C)c(-c3cn(C)nc3C(F)(F)F)nn2)c1C` [Compound 72, 1-(2-ethoxy-3,6-dimethyl-4-pyridyl)-3-[[5-methyl-6-[1-methyl-3-(trifluoromethyl)pyrazol-4-yl]pyridazin-3-yl]methyl]urea], the pEC50 is 8.70 with HFL-1 cells [1]; 8.05 in test [2]; 4.78 in test [3]; 7.60 on S1PR2; 4.96 in test [5]. Besides, in the test with HFL-1 cells [4], the pIC50 was 7.33.
As for `Cc1cc(NC(=O)NCc2cc(C)c(-c3cn(C)nc3C(F)(F)F)nn2)c(C)c(OCC(F)F)n1` [Compound 74, 1-[2-(2,2-difluoroethoxy)-3,6-dimethyl-4-pyridyl]-3-[[5-methyl-6-[1-methyl-3-(trifluoromethyl)pyrazol-4-yl]pyridazin-3-yl]methyl]urea], the pEC50 is 7.82 with HFL-1 cells [1]; 7.66 in test [2]; 4.89 in test [3]; 7.09 at S1PR2; at most 4.70 in test [5]. The pIC50 in the test on HFL-1 cells [4] is 6.93.
Consider `Cc1cc(NC(=O)NCc2cc(C)c(-c3cn(C)nc3C(F)(F)F)nn2)cc(OCC(F)F)n1` [Compound 75, 1-[2-(2,2-difluoroethoxy)-6-methyl-4-pyridyl]-3-[[5-methyl-6-[1-methyl-3-(trifluoromethyl)pyrazol-4-yl]pyridazin-3-yl]methyl]urea], for which the pEC50 was 7.42 in the test on HFL-1 cells [1]; 7.23 in test [2]; at most 4.70 in test [3]; 6.55 on S1PR2; 5.54 in test [5]. Also, in the test with HFL-1 cells [4], the pIC50 is 6.65.
Consider `CCOc1cc(N/C(=N/C#N)NCc2cc(C)c(-c3cn(C)nc3C(F)(F)F)nn2)cc(C(F)(F)F)n1` [Compound 76, 2-cyano-1-[2-ethoxy-6-(trifluoromethyl)-4-pyridyl]-3-[[5-methyl-6-[1-methyl-3-(trifluoromethyl)pyrazol-4-yl]pyridazin-3-yl]methyl]guanidine], for which the pEC50 in the test with HFL-1 cells [1] is 8.10; in test [2] it was 7.77; in test [3], 4.88; at S1PR2, 7.21; in test [5] it was 5.18. Also, the pIC50 in the test on HFL-1 cells [4] was 6.95.
Turning to `CCOc1nc(C)cc(N/C(=N/C#N)NCc2cc(C)c(-c3cn(C)nc3C(F)(F)F)nn2)c1C` [Compound 78, 2-cyano-1-(2-ethoxy-3,6-dimethyl-4-pyridyl)-3-[[5-methyl-6-[1-methyl-3-(trifluoromethyl)pyrazol-4-yl]pyridazin-3-yl]methyl]guanidine], the pEC50 was 5.96 in the test on HFL-1 cells [1]; 6.97 in test [2]; at most 4.70 in test [3]; 6.06 on S1PR2; at most 4.70 in test [5]. In addition, in the test with HFL-1 cells [4], the pIC50 is 5.90.
As to `Cc1cc(NC(=NC#N)NCc2cc(C)c(-c3cn(C)nc3C(F)(F)F)nn2)c(C)c(OCC(F)F)n1` [Compound 79, 2-cyano-1-[2-(2,2-difluoroethoxy)-3,6-dimethyl-4-pyridyl]-3-[[5-methyl-6-[1-methyl-3-(trifluoromethyl)pyrazol-4-yl]pyridazin-3-yl]methyl]guanidine], the pEC50 with HFL-1 cells [1] was 6.36; in test [2] it was 6.26; in test [3] it was at most 4.70; on S1PR2 it was 5.67; in test [5], at most 4.70. The pIC50 in the test with HFL-1 cells [4] is 5.15.
Consider `CCOc1nc(C(F)(F)F)cc(N/C(=N/C#N)NCc2cc(C)c(-c3cn(C)nc3C(F)(F)F)nn2)c1C` [Compound 80, 2-cyano-1-[2-ethoxy-3-methyl-6-(trifluoromethyl)-4-pyridyl]-3-[[5-methyl-6-[1-methyl-3-(trifluoromethyl)pyrazol-4-yl]pyridazin-3-yl]methyl]guanidine], for which the pEC50 in the test on HFL-1 cells [1] was 8.52; in test [2] it was 7.89; in test [3], at most 4.70; on S1PR2, 7.35; in test [5] it was 5.18. Also, in the test with HFL-1 cells [4], the pIC50 is 6.62.
For `CCOc1cc(NC(=O)NCc2cc(C)c(N3CCC(F)(F)C3)nn2)cc(Cl)n1` [Compound 81, 1-(2-Chloro-6-ethoxy-pyridin-4-yl)-3-[6-(3,3-difluoro-pyrrolidin-1-yl)-5-methyl-pyridazin-3-ylmethyl]-urea], the pEC50 with HFL-1 cells [1] was 7.49; in test [2] it was 8.22; in test [3], 5.18; on S1PR2 it was 6.71; in test [5], 5.42. In addition, the pIC50 with HFL-1 cells [4] was 5.00.
As to `CCOc1cc(NC(=O)NCc2cc(C)c(N3CC(C)OC(C)C3)nn2)cc(Cl)n1` (stereo not drawn) [Compound 82, 1-(2-Chloro-6-ethoxy-pyridin-4-yl)-3-[6-(2,6-dimethyl-morpholin-4-yl)-5-methyl-pyridazin-3-ylmethyl]-urea], the pEC50 in the test on HFL-1 cells [1] is 7.27; in test [2], 8.22; in test [3] it was 5.18; on S1PR2, 6.81; in test [5] it was 6.47. Further, in the test with HFL-1 cells [4], the pIC50 was 6.14.
As for `CCOc1cc(NC(=O)NCc2cc(C)c(N3CC(C)OC(C)C3)nn2)cc(C(F)(F)F)n1` (stereo not drawn) [Compound 87, 1-[[6-(2,6-dimethyl-morpholin-4-yl)-5-methyl-pyridazin-3-yl]methyl]-3-[2-ethoxy-6-(trifluoromethyl)-4-pyridyl]urea], the pEC50 in the test with HFL-1 cells [1] was 7.09; in test [2], 7.38; in test [3] it was 5.85; at S1PR2, 6.48; in test [5], 6.60. Further, the pIC50 with HFL-1 cells [4] was 5.66.
For the molecule `Cc1cc(CNC(=O)Nc2cc(Cl)nc(OCC(F)F)c2)nnc1N1CCOC(C(F)(F)F)C1` (stereo not drawn) [Compound 89, 1-[2-chloro-6-(2,2-difluoroethoxy)-4-pyridyl]-3-[[5-methyl-6-[2-(trifluoromethyl)morpholin-4-yl]pyridazin-3-yl]methyl]urea], the pEC50 in the test with HFL-1 cells [1] is 7.48; in test [2], 7.47; in test [3], 5.42; on S1PR2 it was 6.37; in test [5], 6.08. The pIC50 with HFL-1 cells [4] is 5.80.
Consider `Cc1cc(CNC(=O)Nc2cc(Cl)nc(OCC(F)F)c2)nnc1N1CCC(F)(CO)C1` (stereo not drawn) [Compound 90, 1-[2-chloro-6-(2,2-difluoroethoxy)-4-pyridyl]-3-[[6-[3-fluoro-3-(hydroxymethyl)pyrrolidin-1-yl]-5-methyl-pyridazin-3-yl]methyl]urea], for which the pEC50 is 6.61 in the test on HFL-1 cells [1]; 6.34 in test [2]; 5.18 in test [3]; 5.93 at S1PR2; 5.68 in test [5]. Besides, the pIC50 with HFL-1 cells [4] was 4.52.

(Values after patent US20190388421A1, “NOVEL COMPOUNDS AND PHARMACEUTICAL COMPOSITIONS THEREOF FOR THE TREATMENT OF FIBROSIS” (Galapagos NV, priority 2016, published 2019).)
